Reference: ChEMBL document CHEMBL1201862, “PubChem BioAssay data set” (2004)
Active and inactive are the calls of the source.

Columns and labels:
[1] = tested on: Streptococcus sp. 'group A'; assay: growth inhibition of control SK(-) GAS strain, dose response, counter-screen for streptokinase expression inhibitor project, luminescence, kanamycin, BacTiterGlo, confirmation (AID 1900); type: functional, organism-based
Streptococcus = assay: Group A Streptococcus viability loss, dose response, counter-screen for streptokinase expression inhibitor project, luminescence, BacTiterGlo (AID 1915); type: functional, organism-based;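 note: potency for reduction of bacterial viability or growth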
Streptokinase A = target: T1, Streptokinase A (Streptococcus pyogenes serotype M1, UniProt P10520); assay: S. pyogenes streptokinase expression inhibitors, potency, dose response, plasminogen activation absorbance, OD405 (AID 1914); type: functional, Streptococcus pyogenes M1 GAS;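 note: secreted streptokinase activity via plasminogen activation per viability signal from cell pellet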
T1 sequence (P10520 whole entry): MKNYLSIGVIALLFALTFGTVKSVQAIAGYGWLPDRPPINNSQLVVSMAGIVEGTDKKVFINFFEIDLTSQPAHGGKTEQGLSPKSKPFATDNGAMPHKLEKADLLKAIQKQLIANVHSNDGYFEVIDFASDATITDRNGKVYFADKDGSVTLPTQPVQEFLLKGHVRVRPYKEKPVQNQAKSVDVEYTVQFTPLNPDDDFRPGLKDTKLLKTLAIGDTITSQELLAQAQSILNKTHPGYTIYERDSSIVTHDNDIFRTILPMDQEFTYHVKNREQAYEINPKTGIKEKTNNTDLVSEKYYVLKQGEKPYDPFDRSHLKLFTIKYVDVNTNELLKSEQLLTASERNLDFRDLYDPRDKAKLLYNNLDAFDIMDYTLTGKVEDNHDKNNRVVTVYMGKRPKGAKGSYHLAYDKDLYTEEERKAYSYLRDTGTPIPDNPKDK

[2] = target: T2, Corticotropin-releasing factor receptor 2/Corticotropin-releasing factor-binding protein (Homo sapiens, UniProt P24387+Q13324); assay: Dose Response confirmation of uHTS hits for small molecule antagonists of the CRF-binding protein and CRF-R2 receptor complex.; type: functional; settings: read-out: IC50_Mean
T2 sequence (Q13324 whole entry): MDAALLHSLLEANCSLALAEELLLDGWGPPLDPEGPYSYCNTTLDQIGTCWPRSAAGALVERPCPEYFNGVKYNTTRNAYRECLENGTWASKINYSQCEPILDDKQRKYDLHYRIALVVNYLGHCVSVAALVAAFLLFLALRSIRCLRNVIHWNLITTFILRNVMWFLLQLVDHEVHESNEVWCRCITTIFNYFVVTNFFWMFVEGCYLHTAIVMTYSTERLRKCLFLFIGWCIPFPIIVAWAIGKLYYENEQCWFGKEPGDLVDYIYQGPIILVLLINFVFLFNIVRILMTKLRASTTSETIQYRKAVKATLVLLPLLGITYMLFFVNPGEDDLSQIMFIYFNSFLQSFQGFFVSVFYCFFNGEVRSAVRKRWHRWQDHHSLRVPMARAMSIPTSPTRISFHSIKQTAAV
T2 sequence (P24387 whole entry): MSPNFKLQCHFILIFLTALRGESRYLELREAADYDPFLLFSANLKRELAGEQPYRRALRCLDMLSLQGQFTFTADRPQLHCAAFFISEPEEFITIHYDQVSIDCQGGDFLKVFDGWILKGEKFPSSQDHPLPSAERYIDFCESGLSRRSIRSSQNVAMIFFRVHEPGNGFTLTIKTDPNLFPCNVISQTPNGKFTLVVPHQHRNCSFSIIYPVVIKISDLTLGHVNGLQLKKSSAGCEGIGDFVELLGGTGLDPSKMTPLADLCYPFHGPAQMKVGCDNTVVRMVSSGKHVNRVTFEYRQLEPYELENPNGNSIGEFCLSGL

[3] = target: T2, Corticotropin-releasing factor receptor 2/Corticotropin-releasing factor-binding protein; assay: activators of CRF receptor 2 with binding protein – uHTS hits, confirmation (AID 602473); type: functional; settings: read-out: EC50_Mean
Cytochrome P450 1A2 = target: T3, Cytochrome P450 1A2 (Homo sapiens, UniProt P05177);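 note: PubChem cytochrome P450 panel assay, CYP1A2 panel member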
T3 sequence (P05177 whole entry): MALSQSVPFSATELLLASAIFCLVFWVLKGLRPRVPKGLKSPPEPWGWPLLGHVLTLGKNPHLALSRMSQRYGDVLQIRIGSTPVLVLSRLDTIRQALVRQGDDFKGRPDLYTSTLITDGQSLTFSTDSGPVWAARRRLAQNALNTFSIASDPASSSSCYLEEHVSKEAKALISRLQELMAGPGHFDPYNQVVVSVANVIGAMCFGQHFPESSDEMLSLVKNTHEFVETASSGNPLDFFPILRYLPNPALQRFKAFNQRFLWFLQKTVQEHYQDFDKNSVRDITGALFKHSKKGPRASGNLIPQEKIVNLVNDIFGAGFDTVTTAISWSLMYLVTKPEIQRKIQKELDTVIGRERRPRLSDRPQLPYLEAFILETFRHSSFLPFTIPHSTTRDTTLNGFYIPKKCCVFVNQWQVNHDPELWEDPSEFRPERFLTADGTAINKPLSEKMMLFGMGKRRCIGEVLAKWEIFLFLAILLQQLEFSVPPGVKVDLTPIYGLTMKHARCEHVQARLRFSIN

[4] = Luminescence Cell-Based Dose Confirmation HTS to Identify Inhibitors of Platelet Dense Granule Release. [Related pubchem assays: 1663 (Primary HTS), 1678 (Summary of Project)]; type: functional
[5] = cytotoxicity toward NIH3T3 fibroblasts, dose response, counter-screen, cell-based, ATP luminescence, mouse fibroblasts (AID 2010); type: functional;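 note: cells exposed to compound for about 90 hours before reading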
[6] = target: Luciferin 4-monooxygenase (Photinus pyralis, UniProt P08659); assay: firefly luciferase enzyme inhibitors, dose response, biochemical, luminescence (AID 1891)
Sequence of Luciferin 4-monooxygenase (P08659 whole entry): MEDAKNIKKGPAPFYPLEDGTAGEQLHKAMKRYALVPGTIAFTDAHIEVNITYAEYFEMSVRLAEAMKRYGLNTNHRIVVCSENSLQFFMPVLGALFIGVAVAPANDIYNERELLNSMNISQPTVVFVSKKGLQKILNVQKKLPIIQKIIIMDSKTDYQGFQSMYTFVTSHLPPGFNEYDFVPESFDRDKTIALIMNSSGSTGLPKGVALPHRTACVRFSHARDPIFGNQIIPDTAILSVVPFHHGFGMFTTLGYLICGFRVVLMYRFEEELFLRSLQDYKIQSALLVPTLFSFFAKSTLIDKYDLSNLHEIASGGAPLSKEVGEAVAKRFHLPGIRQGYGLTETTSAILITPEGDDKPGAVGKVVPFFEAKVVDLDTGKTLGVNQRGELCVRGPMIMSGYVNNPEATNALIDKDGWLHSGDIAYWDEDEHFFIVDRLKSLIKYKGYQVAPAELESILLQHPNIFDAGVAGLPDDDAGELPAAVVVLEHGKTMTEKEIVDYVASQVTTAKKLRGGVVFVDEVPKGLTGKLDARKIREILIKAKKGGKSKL

[7] = inhibitors of intracellular T. cruzi replication, confirmation, NIH3T3 host cells, beta-gal luminescence (AID 2044); type: functional, cell-based;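 note: intracellular parasites grown in NIH/3T3 mouse fibroblasts as host cells; luminescent beta-galactosidase reporter signal from transgenic T. cruzi replicating inside host cells; inhibitors lower the luminescence signal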
Cytochrome P450 2D6 = Cytochrome P450 2D6 (Homo sapiens, UniProt P10635);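 note: CYP2D6 member of a cytochrome P450 panel assay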
Sequence of Cytochrome P450 2D6 (P10635 whole entry): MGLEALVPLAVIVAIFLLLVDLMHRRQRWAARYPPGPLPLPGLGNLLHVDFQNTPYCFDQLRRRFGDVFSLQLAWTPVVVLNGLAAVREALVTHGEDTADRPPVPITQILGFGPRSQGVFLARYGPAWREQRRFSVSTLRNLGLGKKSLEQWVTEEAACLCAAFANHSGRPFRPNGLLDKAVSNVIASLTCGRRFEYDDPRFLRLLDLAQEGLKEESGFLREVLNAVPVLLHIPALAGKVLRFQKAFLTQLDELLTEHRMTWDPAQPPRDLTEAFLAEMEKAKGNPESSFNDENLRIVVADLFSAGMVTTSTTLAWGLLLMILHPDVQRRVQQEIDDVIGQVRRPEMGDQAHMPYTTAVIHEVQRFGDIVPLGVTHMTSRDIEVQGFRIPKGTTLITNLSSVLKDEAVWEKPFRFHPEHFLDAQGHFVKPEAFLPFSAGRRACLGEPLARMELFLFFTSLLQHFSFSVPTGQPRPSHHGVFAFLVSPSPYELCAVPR

Cytochrome P450 2C19 = Cytochrome P450 2C19 (Homo sapiens, UniProt P33261); assay: Cytochrome panel assay with activity outcomes. Panel member name: p450-cyp2c19 Compounds with AC50 equal or less than 10 uM are considered active; type: functional; settings: read-out: AC50
Sequence of Cytochrome P450 2C19 (P33261 whole entry): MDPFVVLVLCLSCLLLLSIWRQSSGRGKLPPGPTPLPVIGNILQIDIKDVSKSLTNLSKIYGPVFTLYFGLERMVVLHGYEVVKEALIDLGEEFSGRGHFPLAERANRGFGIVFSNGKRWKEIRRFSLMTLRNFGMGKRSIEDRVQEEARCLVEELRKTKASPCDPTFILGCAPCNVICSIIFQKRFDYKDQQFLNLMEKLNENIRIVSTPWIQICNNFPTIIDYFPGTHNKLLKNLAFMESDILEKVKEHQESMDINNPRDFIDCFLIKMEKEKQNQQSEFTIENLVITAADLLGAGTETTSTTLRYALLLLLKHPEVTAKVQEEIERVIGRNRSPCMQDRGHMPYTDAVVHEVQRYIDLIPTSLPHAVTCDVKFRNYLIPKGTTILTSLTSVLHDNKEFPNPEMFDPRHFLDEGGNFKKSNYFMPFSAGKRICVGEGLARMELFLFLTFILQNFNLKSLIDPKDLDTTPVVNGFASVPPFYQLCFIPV

Cytochrome P450 2C9 = Cytochrome P450 2C9 (Homo sapiens, UniProt P11712)
Sequence of Cytochrome P450 2C9 (P11712 whole entry): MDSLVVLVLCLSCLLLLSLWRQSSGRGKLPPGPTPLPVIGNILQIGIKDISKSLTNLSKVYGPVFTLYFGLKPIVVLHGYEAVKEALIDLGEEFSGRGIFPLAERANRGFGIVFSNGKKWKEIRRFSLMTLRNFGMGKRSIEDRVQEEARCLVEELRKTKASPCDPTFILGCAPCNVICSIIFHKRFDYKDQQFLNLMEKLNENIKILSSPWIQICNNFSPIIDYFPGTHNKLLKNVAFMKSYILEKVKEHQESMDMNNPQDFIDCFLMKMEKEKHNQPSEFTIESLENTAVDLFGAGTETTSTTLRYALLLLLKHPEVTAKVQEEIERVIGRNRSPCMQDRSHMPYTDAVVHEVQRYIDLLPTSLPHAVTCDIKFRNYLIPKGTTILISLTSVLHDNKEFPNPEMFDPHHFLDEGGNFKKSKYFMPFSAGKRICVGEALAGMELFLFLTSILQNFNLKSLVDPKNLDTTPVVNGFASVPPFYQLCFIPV

O=C(O)c1ccc(N2CCCCS2(=O)=O)cc1
EC50 [1]: > 150 µM (not active) | EC50 (Streptococcus): > 150 µM (not active) | EC50 (Streptokinase A): > 150 µM (not active)

NC(=O)c1ccc(C2SCC(=O)N2Cc2ccccc2)cc1 (configuration not stated)
IC50 [2]: > 47.1 µM (inactive) | EC50 [3]: > 53 µM (inactive)

N#CCCn1c(=O)c(-c2ccc(F)cc2)nc2cnc(N3CCOCC3)nc21
AC50 (Cytochrome P450 1A2): 20 µM (inconclusive)

CC1=CC(C)(C)n2c(O)c(N=N)c3c(C)c(C)cc1c32
EC50 [1]: 8.93 µM (active) | EC50 (Streptococcus): > 150 µM (not active) | EC50 (Streptokinase A): 16.3 µM (active)

Clc1cccc(Cl)c1C1Nc2cccc3cccc(c23)N1
EC50 [1]: 5.07 µM (active) | EC50 (Streptococcus): 19.1 µM (active) | EC50 (Streptokinase A): > 50 µM (not active)

Cc1ccc(C(=O)NC2CCCC2)s1
EC50 [1]: > 150 µM (not active) | EC50 (Streptococcus): > 150 µM (not active) | EC50 (Streptokinase A): > 150 µM (not active)

CCOc1cc(CNCCN2CCOCC2)ccc1OCc1ccccc1Cl
EC50 [4]: > 112 µM (not active) | EC50 [5]: 21.1 µM (active) | EC50 [6]: > 112 µM (not active) | EC50 [7]: 0.125 µM (active)

Cc1ccc(CNC(=O)CCNC(=O)Cn2ccc3ccccc3c2=O)cc1
IC50 [2]: > 47.1 µM (inactive) | EC50 [3]: > 53 µM (inactive)

Cc1ccc(Nc2ncccc2C(=O)NCc2cccs2)c(C)c1
AC50 (Cytochrome P450 2D6): 25.1 µM (inconclusive) | AC50 (Cytochrome P450 2C19): 7.08 µM (inconclusive)

CC1CCN(c2nc(N3CCCCC3)nc(N3CCCCC3)n2)CC1
EC50 [1]: 13.7 µM (active) | EC50 (Streptococcus): > 150 µM (not active) | EC50 (Streptokinase A): 33.2 µM (active)

Cn1cc(S(=O)(=O)N2CCc3ccccc32)cc1C(=O)Nc1ccc(Cl)cc1
EC50 [4]: > 112 µM (not active) | EC50 [6]: > 112 µM (not active)

O=C(Nc1cc(Br)ccc1O)c1cc(-c2ccc3c(c2)OCO3)on1
IC50 [2]: > 47.1 µM (inactive) | EC50 [3]: > 53 µM (inactive)

COc1ccc(-c2nc3cnc(N(C)C)nc3n(CCc3ccccc3)c2=O)cc1
AC50 (Cytochrome P450 1A2): 1.26 µM (inconclusive)

CS(=O)(=O)N1CCC2(CC1)CN(Cc1nccs1)C2
AC50 (Cytochrome P450 1A2): 6.31 µM (inconclusive)

CC(=O)COc1ccc2c(C)c(C)c(=O)oc2c1
AC50 (Cytochrome P450 2C19): 0.178 µM (inconclusive)

O=C(O)c1cc2cc(Cl)ccc2oc1=O
AC50 (Cytochrome P450 1A2): 0.0251 µM (inconclusive) | AC50 (Cytochrome P450 2C9): 0.00562 µM (inconclusive)

c1csc(-c2csc3nc(CN4CCOCC4)nc(NCc4ccc5c(c4)OCO5)c23)c1
EC50 [1]: 12.3 µM (active) | EC50 (Streptococcus): > 150 µM (not active) | EC50 [5]: > 60 µM (not active) | EC50 [7]: 1.31 µM (active) | EC50 (Streptokinase A): 59.9 µM (active)

CCCN(CC(=O)Nc1ccccc1OC)C(=O)c1ccncc1
EC50 [1]: > 150 µM (not active) | EC50 (Streptococcus): > 150 µM (not active) | EC50 (Streptokinase A): > 150 µM (not active)

Cn1c(=O)oc2cc(S(=O)(=O)N3CCN(c4ccc(F)cc4)CC3)ccc21
EC50 [4]: > 112 µM (not active) | EC50 [6]: > 112 µM (not active)

CCC(=O)Nc1nc2ccccc2n1Cc1ccccc1C
EC50 [1]: 2.29 µM (active) | EC50 (Streptococcus): > 150 µM (not active) | EC50 (Streptokinase A): > 150 µM (not active)

O=C(CN1C(=O)CCC1=O)Nc1nc(-c2cccs2)cs1
EC50 [4]: > 112 µM (not active) | EC50 [6]: > 112 µM (not active)

CC(C(=O)NCCN1CCOCC1)(c1ccccc1)c1ccccc1
IC50 [2]: > 47.1 µM (inactive) | EC50 [3]: > 53 µM (inactive)
